Here are results for 25 compounds from PMC5532363, “Synergistic blending of high-valued heterocycles inhibits growth of Plasmodium falciparum in culture and P. berghei infection in mouse model” (Scientific Reports, 2017).

Like-named read-outs stand apart in the source and are kept apart here.

The subject of data set [1] is P. falciparum 3D7 (Pf3D7), CQ sensitive. Put plainly: SYBR Green I growth inhibition assay, asynchronous P. falciparum 3D7 culture. It counts as cell-based, Plasmodium falciparum. The following applies: for IC50 (SE) µM / IC50 (SE) µg/mL: Pf3D7, asynchronous culture; for IC50: Plasmodium falciparum. From the text: Antimalarial activity of all the listed Pht analogues was initially assessed on asynchronous cultures of P. falciparum 3D7 (Pf3D7) clone using the SYBR Green assay. […] The mean IC50 values are based on three separate experiments (Table 1).
The laboratory-adapted P. falciparum strains 3D7 (Africa; CQ sensitive) and W2 (Africa; CQ resistant), were acquired from Malaria Research and Reference Reagent Resource Center (MR4) (Manassas, VA, USA) and maintained with type O +ve erythrocytes suspended in continuous complete culture medium as described. Complete culture media consisted of 10.43 g/litre of RPMI 1640-HEPES supplemented with 10% (vol/vol) human AB serum, 92.6 mg/litre L-glutamine, 50 mg/liter hypoxanthine, 2 g/litre sodium bicarbonate (Sigma-Aldrich, St. Louis, MO). Incubation of cultures was at 37 °C and maintained in a low oxygen atmosphere (5% O2, 5% CO2, 90% N). The levels of parasitemia in the cultures were maintained at between 2 and 10%, with 5% hematocrit. Media was changed after every 24 hours and parasitemia monitored every 48 hours. Synchronous cultures were prepared by sorbitol lysis. Stock solutions of the Pht, Pht analogues, and DHA were prepared in absolute dimethyl sulfoxide (DMSO) while CQ was prepared in distilled water. The prepared drug stock solutions were used immediately or stored at −80 °C for not longer than one month before use. Stock solutions were further diluted in serum free RPMI 1640 media (stock solution solvent final conc. 0.05%) before performing a 2-fold serial dilution to achieve dose ranges of 0.2 µM to 100 µM (Pht and derivatives), 7.8 to 2,000 nM (CQ) and 0.17 to 87.5 nM (DHA). 25 μL of the drug diluents were aliquoted into 96 well plates and used immediately. Alternatively, the stock solutions were diluted in distilled water, 2-fold serial dilution performed on a 96 well plate and allowed to air dry in a laminar flow hood after which dried plates were stored at 4 °C until use. SYBR Green I assay technique with additional modification was used for drug susceptibility testing of the parasites. Parasite cultures of >1% parasitemia were diluted to 1% parasitemia and 2% hematocrit and 200 μL were transferred onto drug pre-dosed plates and incubated at 37 °C for 90 hours, [40]. Drug exposure was terminated by freezing the drug plates at −80 °C for 24 hours after which lysis buffer containing (per liter) 100 mM Tris-HCl, 10 mM EDTA, 0.016% Saponin, 1.6% triton X-100 and 20X SYBR Green I dye was added and the sample incubated for 2 hours in the dark. Relative fluorescence units (RFU) were read using the Perkin Elmer Wallac 1420 fluorescence plate reader, with excitation and emission wavelengths of 485 nm and 535 nm respectively. The readouts values were aligned with corresponding drug doses and analysis performed by Graph-pad Prism software. The drug concentrations (x value) were transformed using X = Log[X] and plotted against the counts (y values) and the data analysed by non-linear regression (sigmoid dose-response/variable slope equation) to yield the IC50.

The mark [2] stands for this setting: SYBR Green, mean of three experiments, NDR / No IC50 = no dose response.
Setting [3] is: 3D7, Pf3D7, asynchronous culture, SYBR Green, mean of three experiments, NDR / No IC50 = no dose response, read-out: IC50 (SE) µM.
[4] abbreviates: 3D7, Pf3D7, asynchronous culture, SYBR Green, mean of three experiments, NDR / No IC50 = no dose response, read-out: IC50 (SE) µg/mL.

On to `CCOC(=O)Cn1cc(Cn2c([C@@H](C(C)C)N3C(=O)c4ccccc4C3=O)nc3ccccc32)nn1` [6a′], for which, in data set [1] (setting [2]), the “IC50 (SE) µM” value is recorded as “No IC50” and the “IC50 (SE) µg/mL” value was “No IC50”.
As for `CC(C)[C@H](c1nc2ccccc2n1Cc1cn(CC(=O)O)nn1)N1C(=O)c2ccccc2C1=O` [6b′], the IC50 in data set [1] (setting [3]) worked out at 7.2 µM; in data set [1] (setting [4]), 3.8 µg/mL.
In the case of `CC(C)[C@H](c1nc2ccccc2n1Cc1cn(C2O[C@@H](CO)C(O)[C@@H](O)[C@@H]2O)nn1)N1C(=O)c2ccccc2C1=O` (stereo partly drawn) [6d′], the IC50 in data set [1] (setting [3]) was 48.3 µM; in data set [1] (setting [4]), 20 µg/mL.
On the same counts, the results for `CCCCCCn1cc(Cn2c([C@@H](C(C)C)N3C(=O)c4ccccc4C3=O)nc3ccccc32)nn1` [6e′] are 16.7 µM and 6.9 µg/mL.
Consider `CCN(CC)CCCC(C)Nc1ccnc2cc(Cl)ccc12` (stereo not drawn) [CQ, chloroquine, reference compound], for which the IC50 worked out at 0.03 µM in data set [1] (3D7, read-out: IC50 (SE) µM) and 0.015 µg/mL in data set [1] (3D7, read-out: IC50 (SE) µg/mL).
`CC(C)C[C@H](c1nc2ccccc2n1Cc1cn(-c2ccc(Cl)cc2)nn1)N1C(=O)c2ccccc2C1=O` [Compound 6b]: in data set [1] (setting [2]), the “IC50 (SE) µM” value is “NDR” and the “IC50 (SE) µg/mL” value is on record as “NDR”.
Turning to `CC(C)C[C@H](c1nc2ccccc2n1Cc1cn(-c2ccc(F)cc2)nn1)N1C(=O)c2ccccc2C1=O` [Compound 6c], the IC50 stood at 17.3 µM in data set [1] (setting [3]) and 8.8 µg/mL in data set [1] (setting [4]).
`COc1ccc(-n2cc(Cn3c([C@@H](CC(C)C)N4C(=O)c5ccccc5C4=O)nc4ccccc43)nn2)cc1` [Compound 6d]: in data set [1] (setting [2]), the “IC50 (SE) µM” value is reported as “NDR” and the “IC50 (SE) µg/mL” value is “NDR”.
For `Cc1ccc(-n2cc(Cn3c([C@@H](CC(C)C)N4C(=O)c5ccccc5C4=O)nc4ccccc43)nn2)cc1` [Compound 6e], the values for the IC50 in data set [1] (setting [3]) and in data set [1] (setting [4]) were 25 µM and 13 µg/mL, respectively.
A word on the melting point: it is the temperature of the solid-liquid transition. The compound `CC[C@@H](C)[C@H](c1nc2ccccc2n1Cc1cn(-c2ccccc2)nn1)N1C(=O)c2ccccc2C1=O` [Compound 6f] showed a melting point of 211 to 213 °C. In addition, in data set [1] (setting [2]), the “IC50 (SE) µM” value was “NDR” and the “IC50 (SE) µg/mL” value was “NDR”.
The compound `CC[C@@H](C)[C@H](c1nc2ccccc2n1Cc1cn(-c2ccc(Cl)cc2)nn1)N1C(=O)c2ccccc2C1=O` [Compound 6g] had a melting point of 194 to 196 °C. In data set [1] (setting [2]), the “IC50 (SE) µM” value is recorded as “NDR” and the “IC50 (SE) µg/mL” value is recorded as “NDR”.
Take `CC[C@@H](C)[C@H](c1nc2ccccc2n1Cc1cn(-c2ccc(OC)cc2)nn1)N1C(=O)c2ccccc2C1=O` [Compound 6i]: the melting point fell in the range of 135 to 137 °C. For the same compound, in data set [1] (setting [3]), the IC50 came to 40 µM. The IC50 in data set [1] (setting [4]) amounted to 22.5 µg/mL.
With `CC[C@@H](C)[C@H](c1nc2ccccc2n1Cc1cn(-c2ccc(C)cc2)nn1)N1C(=O)c2ccccc2C1=O` [Compound 6j], the melting point is 198 to 201 °C. Further, the IC50 in data set [1] (setting [3]) came to 73 µM. Also, in data set [1] (setting [4]), the IC50 came to 33.4 µg/mL.
`CC(C)[C@H](c1nc2ccccc2n1Cc1cn(-c2ccccc2)nn1)N1C(=O)c2ccccc2C1=O` [Compound 6k]: the melting point was in the range of 221 to 223 °C. Moreover, the IC50 in data set [1] (setting [3]) is 30.9 µM. Further, in data set [1] (setting [4]), the IC50 turned out to be 16 µg/mL.
For the compound `CC(C)[C@H](c1nc2ccccc2n1Cc1cn(-c2ccc(Cl)cc2)nn1)N1C(=O)c2ccccc2C1=O` [Compound 6l], the melting point is 182 to 184 °C. Further, in data set [1] (setting [2]), the “IC50 (SE) µM” value is recorded as “NDR” and the “IC50 (SE) µg/mL” value is recorded as “NDR”.
For the compound `COc1ccc(-n2cc(Cn3c([C@@H](C(C)C)N4C(=O)c5ccccc5C4=O)nc4ccccc43)nn2)cc1` [Compound 6n], the melting point lay in the range of 125 to 127 °C. For the same compound, the IC50 in data set [1] (setting [3]) stood at 9.6 µM. In data set [1] (setting [4]), the IC50 was 5.5 µg/mL.
The corresponding values for `Cc1ccc(-n2cc(Cn3c([C@@H](C(C)C)N4C(=O)c5ccccc5C4=O)nc4ccccc43)nn2)cc1` [Compound 6o] are 169 to 171 °C, 23.5 µM and 17.5 µg/mL.
On the same counts, the results for `CCOC(=O)Cn1cc(Cn2c([C@@H](CC(C)C)N3C(=O)c4ccccc4C3=O)nc3ccccc32)nn1` [Compound 6p] are 147 to 149 °C, 62 µM and 31 µg/mL.
As for `CC(C)C[C@H](c1nc2ccccc2n1Cc1cn(CC(=O)O)nn1)N1C(=O)c2ccccc2C1=O` [Compound 6q], the values for the IC50 in data set [1] (setting [3]) and in data set [1] (setting [4]) were 8.4 µM and 4.1 µg/mL, respectively.
With `CCCCCCn1cc(Cn2c([C@@H](CC(C)C)N3C(=O)c4ccccc4C3=O)nc3ccccc32)nn1` [Compound 6t], the melting point lay within 146 to 148 °C. In addition, the IC50 in data set [1] (setting [3]) came to 28 µM. In addition, the IC50 in data set [1] (setting [4]) worked out at 14 µg/mL.
For `CCOC(=O)Cn1cc(Cn2c([C@@H]([C@H](C)CC)N3C(=O)c4ccccc4C3=O)nc3ccccc32)nn1` [Compound 6v], in data set [1] (setting [2]), the “IC50 (SE) µM” value is on record as “No IC50” and the “IC50 (SE) µg/mL” value is recorded as “No IC50”.
On to `CC[C@@H](C)[C@H](c1nc2ccccc2n1Cc1cn(CC(=O)O)nn1)N1C(=O)c2ccccc2C1=O` [Compound 6w], for which the IC50 in data set [1] (setting [3]) came to 15.6 µM; in data set [1] (setting [4]) it was 11.6 µg/mL.
For `CC[C@@H](C)[C@H](c1nc2ccccc2n1Cc1c[nH]nn1)N1C(=O)c2ccccc2C1=O` [Compound 6z], in data set [1] (setting [2]), the “IC50 (SE) µM” value is recorded as “No IC50” and the “IC50 (SE) µg/mL” value was “No IC50”.
`C[C@H]1[C@@H](O)O[C@@H]2O[C@@]3(C)CC[C@H]4[C@H](C)CC[C@@H]1[C@@]24OO3` [DHA, dihydroartemisinin, reference compound]: the values for the IC50 in data set [1] (setting [3]) and in data set [1] (setting [4]) were 0.003 µM and 0.0017 µg/mL, respectively.
For the compound `O=C1NC(=O)c2ccccc21` [I, Phthalimide, reference compound], the IC50 is 5.14 µM in data set [1] (setting [3]) and 0.8 µg/mL in data set [1] (setting [4]).
